Key:
Assay type in all cases: physicochemical
[1] = Dielectric constant of glycols and derivatives; conditions: for Dielectric Constant, 23° C.: neat glycol/derivative
Text: Determining the polarity of a mixture or an emulsion can be performed in various ways. For example, determining a polarity can include measuring a property that is a function of polarity, such as a dielectric constant. Measurement of a dielectric constant of a liquid can be performed by various sensors, such as immersion probes, flow-through probes, and cup-type probes, attached to various meters, such as those available from the Brookhaven Instruments Corporation of Holtsville, N.Y. (e.g., model BI-870) and the Scientifica Company of Princeton, N.J. (e.g. models 850 and 870). For consistency of comparison, preferably all measurements for a particular filter system are performed at substantially the same sample temperature, e.g., by use of a water bath. Generally, the measured dielectric constant of a substance will increase at lower temperatures and decrease at higher temperatures.
Dielectric Constants of the following glycols and their derivatives have been measured (see Table 1).

[2] = Photostability on VITRO-SKIN: retained absorbance and critical wavelength before and after irradiation
Experimental: Referring to Table 7 above, the compositions were applied on Vitro-Skin (0.6 mg/cm2) and irradiated. The irradiation dose was 5 MEDs repeated 4 times (=20 MEDs total). Retained Absorbance at 370 nm (UVA photostability, FIG. 1), 310 nm (UVB photostability, FIG. 2) and critical wavelength (Table 8, FIG. 3) were determined for each composition before and after each irradiation dose in order to determine their photostability.
The resulting sunscreen oil phases were tested for photostability by measuring absorbance on a Labsphere UV-1000S Ultraviolet Transmittance Analyzer before and after irradiation with a Solar Light Company model 16S solar simulator (equipped with a WG 320 filter to transmit radiation greater than 290 nm) in 5 MED (105 mJ/cm^2) increments up to 20 MED cumulative dose. Output was monitored by a PMA 2105 UV-B DCS Detector (biologically weighted) and controlled by a PMA 2100 Automatic Dose Controller (Solar Light Co.).
A synthetic skin substrate was used for testing the sunscreen compositions (VITRO-SKIN substrate by IMS, Inc. of Milford, Conn.). To prepare the substrate, a 300 g solution of 44 g of glycerin and 256 g of deionized water was added to an IMS hydrating chamber, and a sheet of VITRO-SKIN was placed in the hydrating chamber for approx. 16 hours. Several 6.5 cm squares were cut from the hydrated VITRO-SKIN and used for absorbance measurements.
To prepare slides for testing, sunscreen composition is drawn or placed into a pipette. The test composition is uniformly applied to VITRO-SKIN square (0.6 mg/cm^2). This application dose of the oil phase, 0.6 mg/cm^2, corresponds to the application dose of 2 mg/cm^2 of sunscreen formulation (typically the concentration of the oil phase in the sunscreen formulation is about 30%). The VITRO-SKIN square was then placed on a foam block, and the test material was spread by finger (covered with a latex glove or finger cot), first in a circular motion, then by a side-to-side motion during which the VITRO-SKIN is deformed by the pressure. The square was then mounted in a slide holder and allowed to dry for about 15 to 20 minutes.
To test photostability, a slide was positioned on the UV transmittance analyzer using registration marks, and a scan of 1 sq. cm spot on the slide was performed. The slide was then transferred to a holder placed adjacent to the solar simulator and, using a calipers, was positioned such that the beam of UV radiation exiting the solar simulator illuminated the same 1 cm spot on the slide. The following software settings were used: UV-B—290-320 nm; UV-A—320-400 nm; SPF—290-400 nm; Spectral Irradiance; Noon, July 3, Albuquerque, N.Mex.; SPF Spectral Irradiance and Erythermal Effectiveness settings as set by manufacturer. Following an exposure of 5 MED, the slide was again placed in position on the UV transmittance analyzer, and a scan of the exposed spot was performed. The procedure was repeated on the same 1 cm spot on the slide until the desired total radiation dosage was achieved.
The above compositions were applied on Vitro-Skin (0.6 mg/cm2) and irradiated. The irradiation dose was 5 MEDs repeated 4 times (=20 MEDs total). Retained Absorbance at 370 nm (Table 11 and FIG. 4), 310 nm (Table 12) and critical wavelength (Table 13 and FIG. 5) were determined for each composition before and after each irradiation dose in order to determine their photostability. The methodology is described above in more detail in Example 3.

[3] = DOE (central composite design) photostability of model oil phases: retained absorbance after 15 MED; conditions: response surface analysis of DOE 1-3
Experimental: In order to determine the impact of the concentration of avobenzone, from 0.04842 M to 0.0968 M (Factor 1) and different molar ratios of 1,2-octanediol (caprylyl glycol) to avobenzone, from 0 to 10 (Factor 2), on the photostability of avobenzone in the different sunscreen compositions, numerous studies were conducted. Three designs of experiments that represent central composite designs (CCDs) and D.O.E. Fusion 7.2.2 software were employed.
The CCD type of design was used to determine the effect of two factors: concentration of Avobenzone and the molar ratio 1,2-octanediol/avobenzone on the photostability of avobenzone in the different sunscreen compositions. Two responses were measured: the retained absorbance (%) of a sunscreen composition at 370 nm (UVA) and the same measurement at 310 nm (UVB) after irradiation dose of 15 MED.
The same order of experiments was run in the different set-ups. As a result, two categorical factors were added: Oxybenzone (absent or present at a predetermined constant level) and Octocrylene (absent or present at a predetermined constant level). Table 16 presents the three set-ups as well as the numbers of the formulation tables and response tables.
Response surface equalization were fitted to both responses (retained absorbance at 370 nm and retained absorbance at 310 nm, both after an irradiation dose of 15 MED). The significant factors were selected.

CCCCC(O)CO (centres unmarked) [1,2-Hexanediol]
Dielectric Constant, 23° C. [1]: 15.1 | photostability of UVB sunscreens at 310 nm (in words) [2]: can improve the photostability of UVB sunscreens at 310 nm | photostability of avobenzone at 370 nm (in words) [2]: without the significant improvement of the photostability of avobenzone at 370 nm

CCCCCCC(O)CO (centres unmarked) [1,2-Octanediol]
Dielectric Constant ([1]; measured at 30° C., solid at room temperature (23 C.)): 10.61 | effect on retained absorbance at 310 nm after 15 MED (in words) [3]: significantly improves the photostability of sunscreens at 310 nm | effect on retained absorbance at 370 nm after 15 MED (in words) [3]: significantly improves the photostability | photostabilization of avobenzone (in words) [2]: most effectively stabilizes avobenzone

CCC(=O)OCCCCO [Butylene Glycol Monopropionate]
Dielectric Constant, 23° C. [1]: 11.72

CCCCOCCOCCO [Diethylene Glycol Monobutyl Ether]
Dielectric Constant, 23° C. [1]: 10.59

CCOCCOCCO [Ethoxydiglycol, Diethylene glycol monoethyl ether]
Dielectric Constant, 23° C. [1]: 13.69 | photostability of UVB sunscreens at 310 nm (in words) [2]: can improve the photostability of UVB sunscreens at 310 nm | photostability of avobenzone at 370 nm (in words) [2]: without the significant improvement of the photostability of avobenzone at 370 nm

CCCCC(CC)COC(=O)C(C#N)=C(c1ccccc1)c1ccccc1 (centres unmarked) [Octocrylene, 2-ethylhexyl-2-cyano-3,3 diphenylacrylate]
effect on retained absorbance at 310 nm after 15 MED (in words) [3]: gives mild a gain in absorbency | effect on retained absorbance at 370 nm after 15 MED (in words) [3]: helps the absorbance retention 370 nm, but not as significant as in the case of oxybenzone

COc1ccc(C(=O)c2ccccc2)c(O)c1 [Oxybenzone, oxybenzone]
effect on retained absorbance at 310 nm after 15 MED (in words) [3]: helps retention at 310 nm | effect on retained absorbance at 370 nm after 15 MED (in words) [3]: gives the highest boost in retain absorbance at 370 nm and 15 MED exposure

CCCC(O)CO (centres unmarked) [Pentylene Glycol, 1,2-pentanediol]
Dielectric Constant, 23° C. [1]: 18.2 | photostability of UVB sunscreens at 310 nm (in words) [2]: can improve the photostability of UVB sunscreens at 310 nm | photostability of avobenzone at 370 nm (in words) [2]: without the significant improvement of the photostability of avobenzone at 370 nm

Polyethylene Glycol-7 Methyl Ether
Dielectric Constant, 23° C. [1]: 13.1

— patent US20050013781A1, “Sunscreen composition” (Playtex Products, Inc., priority 2003, published 2005)
